Test results from patent publication US7888342B2, “Methods of treating fibromyalgia syndrome, chronic fatigue syndrome and pain” (Cypress Bioscience, Inc., priority 2001, dated 2011).

How the values were obtained:
[1] = biological target: NMDA receptor; details: read-out: IC50, NMDA receptor antagonistic properties; cited from earlier work
[2] = test system: patients with fibromyalgia syndrome (FMS); experiment: Example 5: multicenter, double-blind, randomized, placebo-controlled monotherapy study of milnacipran for fibromyalgia; assay type: in vivo, human; details: 3-months
Procedure: This was a multicenter, randomized, double-blind, placebo-controlled three-arm study designed which enrolled 1196 patients who meet the 1990 ACR criteria for fibromyalgia syndrome (history of widespread pain and pain in 11 of 18 tender point sites on digital palpation), as well as the more detailed admission criteria outlined in the protocol. […] All randomized medications (placebo and milnacipran) were administered twice a day (BID). (i) Primary Efficacy Assessments: Patient Global Impression of Change (PGIC) administered to patients at visits […] Tx15/ET; Physical Component summary of SF-36 (SF-36 PCS) administered to patients at visits BL2/Tx0, […]) Secondary Efficacy Assessments: Time weighted average (AUC) of weekly average PED morning recall pain score; PGIC and SF-36 PCS administered to patients at visits Tx3 to Tx15. (iii) Additional Efficacy Measurements: The Fibromyalgia Impact Questionnaire (FIQ) total score and physical function, Beck Depression Inventory (BDI), the MOS-Sleep Index Scale, the Arizona Sexual Experiences Scale (ASEX), Patient pain 24 hour and 7 day recall VAS, the SF-36 individual domains, Patient Global Disease Status, Patient Global Therapeutic Benefit, the Multiple Ability Self-report Questionnaire (MASQ, cognitive function), the Multidimensional Health Assessment Questionnaire (MDHAQ), Multidimensional Fatigue Inventory (MFI), and diary assessments including current pain (morning, random daily, and evening reports); overall pain past week (weekly report), overall fatigue in the last week (weekly report), and the extent that pain kept the patient from caring for themselves (weekly report). The primary efficacy assessment of this study was a composite responder status defined by three domains of interest evaluated at visit Tx15. The domains measured were The primary efficacy parameter for an indication in the treatment of pain of fibromyalgia was the composite responder status based on the morning recall pain as recorded in the PED and patient global as recorded on the PGIC at Visit Tx15. The primary efficacy parameter for an indication in the treatment of FMS was the composite responder status based on two domains of pain and patient global as used above in the primary efficacy parameter for the treatment of the pain of fibromyalgia plus the additional domain of physical function as measured by the SF-36 PCS at Visit Tx15. […] A patient was classified as a responder for the treatment of FMS if he or she satisfied the responder criteria for the treatment of pain of fibromyalgia and the following additional criterion (at visit Tx15): • Improvement on the SF-36 PCS score from baseline by an amount at least equivalent to the minimal clinically important difference, as defined in the Statistical Analysis Plan. Table 1 summarizes 3-month results for the Baseline Observation Carried Forward (BOCF), Last Observation Carried Forward (LOCF) and study completer (OC) populations. LOCF is an analysis in which observations are carried forward to the last time point for patients who dropped out. The LOCF analysis treats the carried-forward data as observed data at the last time point. BOCF is an analysis that requires that the patient remain active in the trial to be evaluated for response. If a patient withdrew from the trial for any reason, they were classified as a non-responder irregardless of their pain and global scores at the time of withdrawal.

[3] = test system: patient experiencing fatigue and fibromyalgia; details: lofepramine 70 mg bd in combination with L-phenylalanine 500 mg bd; persisted for more than six months; cited from earlier work

CCN(CC)C(=O)[C@]1(c2ccccc2)C[C@@H]1CN (racemic) [milnacipran, cis-(±)-2-(aminomethyl)-N,N-diethyl-1-phenyl-cyclopropanecarboxamide]
IC50 [1]: ~6.3 µM
Composite Pain responder rate, difference from placebo ([2]; BOCF, 100 mg/day (399)): 6.35%
Composite Pain responders, number ([2]; BOCF, 100 mg/day (399)): 91
Composite Pain responders, percent ([2]; BOCF, 100 mg/day (399)): (22.81%)
Composite Syndrome responder rate, difference from placebo ([2]; BOCF, 100 mg/day (399)): 5.81%
Composite Syndrome responders, number ([2]; BOCF, 100 mg/day (399)): 58
Composite Syndrome responders, percent ([2]; BOCF, 100 mg/day (399)): (14.54%)
PGIC Component responder rate, difference from placebo ([2]; BOCF, 100 mg/day (399)): 8.39%
PGIC Component responders, number ([2]; BOCF, 100 mg/day (399)): 125
PGIC Component responders, percent ([2]; BOCF, 100 mg/day (399)): (31.33%)
Pain Component responder rate, difference from placebo ([2]; BOCF, 100 mg/day (399)): 5.89%
Pain Component responders, number ([2]; BOCF, 100 mg/day (399)): 124
Pain Component responders, percent ([2]; BOCF, 100 mg/day (399)): (31.08%)
SF36 PCS Component responder rate, difference from placebo ([2]; BOCF, 100 mg/day (399)): 5.62%
SF36 PCS Component responders, number ([2]; BOCF, 100 mg/day (399)): 108
SF36 PCS Component responders, percent ([2]; BOCF, 100 mg/day (399)): (27.07%)
Composite Pain responder rate, difference from placebo ([2]; BOCF, 200 mg/day (396)): 8.29%
Composite Pain responders, number ([2]; BOCF, 200 mg/day (396)): 98
Composite Pain responders, percent ([2]; BOCF, 200 mg/day (396)): (24.75%)
Composite Syndrome responder rate, difference from placebo ([2]; BOCF, 200 mg/day (396)): 5.16%
Composite Syndrome responders, number ([2]; BOCF, 200 mg/day (396)): 55
Composite Syndrome responders, percent ([2]; BOCF, 200 mg/day (396)): (13.89%)
PGIC Component responder rate, difference from placebo ([2]; BOCF, 200 mg/day (396)): 9.64%
PGIC Component responders, number ([2]; BOCF, 200 mg/day (396)): 129
PGIC Component responders, percent ([2]; BOCF, 200 mg/day (396)): (32.58%)
Pain Component responder rate, difference from placebo ([2]; BOCF, 200 mg/day (396)): 4.86%
Pain Component responders, number ([2]; BOCF, 200 mg/day (396)): 119
Pain Component responders, percent ([2]; BOCF, 200 mg/day (396)): (30.05%)
SF36 PCS Component responder rate, difference from placebo ([2]; BOCF, 200 mg/day (396)): 1.02%
SF36 PCS Component responders, number ([2]; BOCF, 200 mg/day (396)): 89
SF36 PCS Component responders, percent ([2]; BOCF, 200 mg/day (396)): (22.47%)
Composite Pain responder rate, difference from placebo ([2]; LOCF, 100 mg/day (399)): 7.61%
Composite Pain responders, number ([2]; LOCF, 100 mg/day (399)): 103
Composite Pain responders, percent ([2]; LOCF, 100 mg/day (399)): (25.81%)
Composite Syndrome responder rate, difference from placebo ([2]; LOCF, 100 mg/day (399)): 6.56%
Composite Syndrome responders, number ([2]; LOCF, 100 mg/day (399)): 65
Composite Syndrome responders, percent ([2]; LOCF, 100 mg/day (399)): (16.29%)
PGIC Component responder rate, difference from placebo ([2]; LOCF, 100 mg/day (399)): 9.65%
PGIC Component responders, number ([2]; LOCF, 100 mg/day (399)): 138
PGIC Component responders, percent ([2]; LOCF, 100 mg/day (399)): (34.59%)
Pain Component responder rate, difference from placebo ([2]; LOCF, 100 mg/day (399)): 8.66%
Pain Component responders, number ([2]; LOCF, 100 mg/day (399)): 149
Pain Component responders, percent ([2]; LOCF, 100 mg/day (399)): (37.34%)
SF36 PCS Component responder rate, difference from placebo ([2]; LOCF, 100 mg/day (399)): 6.89%
SF36 PCS Component responders, number ([2]; LOCF, 100 mg/day (399)): 129
SF36 PCS Component responders, percent ([2]; LOCF, 100 mg/day (399)): (32.33%)
Composite Pain responder rate, difference from placebo ([2]; LOCF, 200 mg/day (396)): 11.35%
Composite Pain responders, number ([2]; LOCF, 200 mg/day (396)): 117
Composite Pain responders, percent ([2]; LOCF, 200 mg/day (396)): (29.55%)
Composite Syndrome responder rate, difference from placebo ([2]; LOCF, 200 mg/day (396)): 6.68%
Composite Syndrome responders, number ([2]; LOCF, 200 mg/day (396)): 65
Composite Syndrome responders, percent ([2]; LOCF, 200 mg/day (396)): (16.41%)
PGIC Component responder rate, difference from placebo ([2]; LOCF, 200 mg/day (396)): 13.19%
PGIC Component responders, number ([2]; LOCF, 200 mg/day (396)): 151
PGIC Component responders, percent ([2]; LOCF, 200 mg/day (396)): (38.13%)
Pain Component responder rate, difference from placebo ([2]; LOCF, 200 mg/day (396)): 11.22%
Pain Component responders, number ([2]; LOCF, 200 mg/day (396)): 158
Pain Component responders, percent ([2]; LOCF, 200 mg/day (396)): (39.90%)
SF36 PCS Component responder rate, difference from placebo ([2]; LOCF, 200 mg/day (396)): 2.09%
SF36 PCS Component responders, number ([2]; LOCF, 200 mg/day (396)): 109
SF36 PCS Component responders, percent ([2]; LOCF, 200 mg/day (396)): (27.53%)
Composite Pain responder rate, difference from placebo ([2]; OC, 100 mg/day): 13.37%
Composite Pain responders, percent ([2]; OC, 100 mg/day): (38.56%)
Composite Pain, m/n = # of responders/# of patients included ([2]; OC, 100 mg/day): 91/236
Composite Syndrome responder rate, difference from placebo ([2]; OC, 100 mg/day): 11.22%
Composite Syndrome responders, percent ([2]; OC, 100 mg/day): (24.58%)
Composite Syndrome, m/n = # of responders/# of patients included ([2]; OC, 100 mg/day): 58/236
PGIC Component responder rate, difference from placebo ([2]; OC, 100 mg/day): 15.70%
PGIC Component responders, percent ([2]; OC, 100 mg/day): (47.53%)
PGIC Component, m/n = # of responders/# of patients included ([2]; OC, 100 mg/day): 125/263
Pain Component responder rate, difference from placebo ([2]; OC, 100 mg/day): 13.92%
Pain Component responders, percent ([2]; OC, 100 mg/day): (52.32%)
Pain Component, m/n = # of responders/# of patients included ([2]; OC, 100 mg/day): 124/237
SF36 PCS Component responder rate, difference from placebo ([2]; OC, 100 mg/day): 11.40%
SF36 PCS Component responders, percent ([2]; OC, 100 mg/day): (41.06%)
SF36 PCS Component, m/n = # of responders/# of patients included ([2]; OC, 100 mg/day): 108/263
Composite Pain responder rate, difference from placebo ([2]; OC, 200 mg/day): 20.39%
Composite Pain responders, percent ([2]; OC, 200 mg/day): (45.58%)
Composite Pain, m/n = # of responders/# of patients included ([2]; OC, 200 mg/day): 98/215
Composite Syndrome responder rate, difference from placebo ([2]; OC, 200 mg/day): 12.22%
Composite Syndrome responders, percent ([2]; OC, 200 mg/day): (25.58%)
Composite Syndrome, m/n = # of responders/# of patients included ([2]; OC, 200 mg/day): 55/215
PGIC Component responder rate, difference from placebo ([2]; OC, 200 mg/day): 18.76%
PGIC Component responders, percent ([2]; OC, 200 mg/day): (50.59%)
PGIC Component, m/n = # of responders/# of patients included ([2]; OC, 200 mg/day): 129/255
Pain Component responder rate, difference from placebo ([2]; OC, 200 mg/day): 16.44%
Pain Component responders, percent ([2]; OC, 200 mg/day): (54.84%)
Pain Component, m/n = # of responders/# of patients included ([2]; OC, 200 mg/day): 119/217
SF36 PCS Component responder rate, difference from placebo ([2]; OC, 200 mg/day): 5.24%
SF36 PCS Component responders, percent ([2]; OC, 200 mg/day): (34.90%)
SF36 PCS Component, m/n = # of responders/# of patients included ([2]; OC, 200 mg/day): 89/255

CN(CCCN1c2ccccc2CCc2ccccc21)CC(=O)c1ccc(Cl)cc1 [lofepramine]
effect on fatigue and fibromyalgia [3]: considerable improvement in fatigue and fibromyalgia
